Reference: a compilation of properties of binary mixtures (doi:10.1016/j.molliq.2022.119918)

Experiment: xn = mol fraction of the nth substance listed
Details: 100 kPa

CS(C)=O + COCCCC[n+]1ccn(C)c1.NCC(=O)[O-]
x2 = 0
Details	viscosity [mPa·s]
288.15 K	2.47
293.15 K	2.21
298.15 K	1.99
303.15 K	1.81
313.15 K	1.51
318.15 K	1.39

COCCCC[n+]1ccn(C)c1.NCC(=O)[O-] + CS(C)=O
viscosity [mPa·s]
Details	x1 = 0.1009	x1 = 0.1984	x1 = 0.299	x1 = 0.3986	x1 = 0.4986	x1 = 0.6006	x1 = 0.701	x1 = 0.7941	x1 = 0.907	x1 = 1
288.15 K	7.64	11.87	20.11	32.75	–	66.91	88.2	112	149.9	180.6
293.15 K	6.23	9.49	15.68	24.97	–	–	66.19	–	110.8	130.1
298.15 K	5.05	7.6	12.46	19.85	29.5	40.49	52.63	–	83.6	–
303.15 K	–	6.27	–	15.9	23.66	32.57	42.38	52.54	65.49	74.4
308.15 K	–	5.29	–	13.2	19.51	26.99	–	42.67	52.32	58.09
313.15 K	3.15	4.59	7.18	11.14	16.4	22.63	29.37	35.24	42.06	46.29
318.15 K	–	3.92	6.04	9.3	13.46	18.67	23.75	28.16	32.95	36.43

CC(N)C(=O)[O-].COCCCCn1cc[n+](C)c1 + CS(C)=O
viscosity [mPa·s]
Details	x1 = 0.1009	x1 = 0.1996	x1 = 0.3012	x1 = 0.3985	x1 = 0.4922	x1 = 0.5996	x1 = 0.6966	x1 = 0.7973	x1 = 0.8997	x1 = 1
288.15 K	8.27	–	–	40.5	63.89	–	135.6	203	–	403
293.15 K	7.89	–	–	31.54	48.62	72	100.9	143.7	206	–
298.15 K	6.04	–	15.05	24.76	36.87	53.3	73	101.8	142.7	180.6
303.15 K	4.95	–	12.31	19.81	29.28	–	56.62	77.6	107.6	132.1
308.15 K	4.21	6.25	10.23	–	23.47	–	–	–	80.8	98.3
313.15 K	3.64	5.27	8.32	13.02	18.84	26.78	–	47.36	61.67	73.5
318.15 K	–	4.57	7.01	10.65	–	–	28.53	–	47.83	55.86

CS(C)=O + NC(C)C(=O)[O-].COCCCCN1C=[N+](C=C1)C
x2 = 0
Details	viscosity [mPa·s]
288.15 K	2.47
293.15 K	2.21
298.15 K	1.99
303.15 K	1.81
313.15 K	1.51
318.15 K	1.39
